Measurements: patent US12653808B2, “Compounds for treating multiple myeloma” (Purdue Pharma L.P., priority 2018, dated 2026)
Several values for one entry are separate records, joined by “and”; a condition that tells them apart may be missing. Identical values can stand only once.

Legend:
[1] = PK assessment: plasma concentrations of tinostamustine and metabolites M2 and M8, cycle 1 day one; format: in vivo, human
Experimental: Plasma samples were collected to determine the concentrations of tinostamustine and its metabolites (labelled M2 and M8) by a method fully validated according to the relevant guidelines. The PK profiles of tinostamustine in plasma were assessed in each patient in the escalation stage of the study, in cycle 1 only.
Patients of all cohorts and over all dose levels were sampled according to the following schedule: 0.5 hours prior to dose administration, and at 15, 30 and 45 minutes and 1, 1.25, 1.50, 2, 3, 8, 24, 48 and 72 hours from the start of tinostamustine infusion. Plasma samples were collected according to the Laboratory Manual for the determination of tinostamustine and metabolites M2 and M8 concentrations using a method fully validated according to the relevant guidelines.

multiple myeloma [2] = details: López-Iglesias et al, J Hematol Oncol 2017, 10, 127; cited from earlier work
[3] = Compartmental population PK analysis of tinostamustine; format: in vivo, human; details: dose range 20 to 120 mg/m^2, infusion times 30 to 60 minutes
Experimental: A compartmental population PK analysis of tinostamustine was conducted to characterize its concentration-time profiles and its dependency on patient factors. For the analysis, the 24 hours plasma concentrations of tinostamustine at day one from 36 patients was used from whom the data was available. The concentration-time profiles were best described with a two-compartmental model with first order clearance from the central compartment.

[4] = test system: patients with relapsed/refractory hematologic malignancies; assay: Phase 1 dose escalation trial: safety, treatment-emergent adverse events, DLT/MTD (NCI CTCAE v4.03); format: in vivo, human; details: for recommended starting dose, relapse refractory multiple myeloma: 60 minutes infusion, day 1 and day 15 of 28-day cycle
Experimental: A phase 1 trial was carried out including a dose escalation study to investigate the safety, pharmacokinetic (PK) profiles and efficacy of tinostamustine (EDO-S101) in relapsed/refractory hematologic malignancies.
The patient had relapsed/refractory hematologic malignancies for which there are no available therapies.
The assessment of dose-limiting toxicities (DLTs) was based on cycle 1 events alone. Toxicities were assessed regarding type and severity using the National Cancer Institute (NCI) Common Terminology Criteria for Adverse Events (CTCAE) version 4.03, June 2010. Toxicity data were collected for all patients throughout their time on study. Infusion site reactions were assessed using the Phlebitis Scale developed by the Infusion Nurses Society (2011).
DLTs, which were at least possibly related to study drug, were defined as: • Any Grade 3 or 4 non-hematologic toxicity (excluding alopecia and easily correctable electrolyte abnormalities); • Nausea, vomiting or diarrhoea that persists beyond 10 days despite aggressive symptomatic treatment; • Grade 4 neutropenia or thrombocytopenia lasting for 7 days or more; • Any grade 2 or more toxicity, but persist for over 3 weeks; and • Any toxicity resulting in a delay of the next dose administration (cycle 2 day 1≥14).
To ensure patients' safety, the stopping rules were implemented to the dose escalation stage of the study.
(§1) Other safety assessments included physical examinations, Eastern Cooperative Oncology Group (ECOG) performance status determinations, electrocardiograms (ECGs), pregnancy testing for women of childbearing potential, documentation of treatment-emergent adverse events (TEAEs), clinical laboratory evaluations including haematology, blood chemistry and urinalysis, vital signs, and documentation of concomitant medication usage.
If there is no DLT observed in any of these subjects, the trial proceeds to enroll additional subjects into the next higher dose cohort. If one subject develops a DLT at a specific dose, an additional three subjects are enrolled into that same dose cohort.

[5] = test system: patients with relapsed/refractory hematologic malignancies; assay: Cardiac safety: electrocardiograms and cardiac disorders; format: in vivo, human
Excerpt: as §1

[6] = test system: relapsed/refractory hematologic malignancies; assay: Tumour assessment: response to treatment, all HM; format: in vivo, human; details: all 46 patients
Excerpt: (§2) Response to treatment included evaluation of overall response rate (patients with a CR plus patients with a PR), clinical benefit (CB) rate (patients with CR plus patients with PR plus patients with stable disease (SD)), progression free survival, and overall survival according to the relevant response criteria.

[7] = test system: patients with relapsed/refractory hematologic malignancies; assay: Biochemistry: clinical chemistry abnormalities and TEAEs; format: in vivo, human
Excerpt: as §1

multiple myeloma [8] = assay: Tumour assessment: response to treatment, patients with multiple myeloma; format: in vivo, human; details: 19 patients with MM
Excerpt: as §2

[9] = test system: lymphoma (Hodgkin and non-Hodgkin); assay: Tumour assessment: response to treatment, patients with lymphoma; format: in vivo, human; details: 27 patients with lymphoma
Excerpt: as §2

[10] = all cohorts administered over 30 or 45 minutes
[11] = doses of 20 to 80 mg/m^2, 60 min cohorts
[12] = doses of 100 or 120 mg/m^2, 60 min cohorts

SMILES: Cn1c(CCCCCCC(=O)NO)nc2cc(N(CCCl)CCCl)ccc21 [tinostamustine]
- Cmax Mean (SD) ([1]; dose 60 mg/m^2, infusion time 30 minutes): 1724 (1416) ng/mL
- AUC Mean (SD) ([1]; dose 80 mg/m^2, infusion time 60 minutes): 902 (653) h · ng/mL
- AUC Mean (SD) ([1]; dose 120 mg/m^2, infusion time 60 minutes): 1638 (578) h · ng/mL
- activity in in vitro and in vivo models against multiple myeloma (multiple myeloma [2]): potent activity
- dose linearity of PK [3]: dose-linear
- patients with Grade 3 and 4 thrombocytopenia in C2 and C3 leading to withdrawal ([4]; 100 mg/m^2 over 60 minutes): three patients
- DLT ([4]; 120 mg/m^2, lymphoma cohort): Thrombocytopenia
- serious thrombocytopenia (grade 3), also led to study discontinuation ([4]; HM120/60 cohort patient, of all patients): 2%
- TEAE with outcome of death ([4]; Patients (N = 46), number (percent)): 0 (0)
- leukopenia, incidence ([4]; administered over 30 or 45 minutes): 16%
- leukopenia, incidence ([4]; administered over 60 minutes): 27%
- thrombocytopenia, incidence ([4]; administered over 60 minutes): 58%
- SAE dyspnea, hypersensitivity, osteomyelitis, pleural effusion, pneumonia, and thrombocytopenia (each) ([4]; all 46 patients): 2%
- SAE febrile neutropenia and sepsis (each) ([4]; all 46 patients): 2%
- all other TEAEs, incidence ([4]; all 46 patients): < 20%
- discontinuation because of adverse events (AE) ([4]; all 46 patients): 29%
- grade 3/4 anemia, incidence ([4]; all 46 patients): 22%
- grade 3/4 leukopenia/WBC decreased, incidence ([4]; all 46 patients): 15% and 16%
- grade 3/4 lymphopenia, incidence ([4]; all 46 patients): 8.6%
- grade 3/4 neutropenia/neutrophil count decreased, incidence ([4]; all 46 patients): 29%
- grade 3/4 thrombocytopenia, incidence ([4]; all 46 patients): 39% and 40%
- nausea, incidence ([4]; all 46 patients): 29%
- other TEAEs leading to study drug discontinuation (anaphylactic reaction, febrile neutropenia, hypersensitivity, pleural effusion, pruritus; each) ([4]; all 46 patients): 2%
- patients with at least one TEAE considered study drug-related ([4]; all 46 patients): 38 patients
- anaemia, incidence ([4]; all 46 patients, any grade): 39%
- leukopenia/WBC decreased, incidence ([4]; all 46 patients, any grade): 21% and 22%
- neutropenia/neutrophil count decreased, incidence ([4]; all 46 patients, any grade): 29% and 28%
- thrombocytopenia/platelet count decreased, incidence ([4]; all 46 patients, any grade): 52%
- anaemia, incidence [4, 10]: 37%
- thrombocytopenia, incidence [4, 10]: 47%
- recommended starting dose, relapse refractory multiple myeloma ([4]; baseline platelet count 100×10^9/L): 50 mg/m^2
- recommended starting dose, relapse refractory multiple myeloma ([4]; baseline platelet count >100×10^9/L): 60 mg/m^2
- grade 3 or 4 anaemia, incidence ([4]; doses of 20 to 80 mg/m^2): 8%
- anaemia, incidence [4, 11]: 25%
- grade 3/4 thrombocytopenia, incidence [4, 11]: 8%
- leukopenia, incidence [4, 11]: 17%
- neutropenia, incidence [4, 11]: 25%
- grade 3 or 4 anaemia, incidence ([4]; doses of 100 or 120 mg/m^2): 36%
- anaemia, incidence [4, 12]: 64%
- grade 3/4 thrombocytopenia, incidence [4, 12]: 71%
- leukopenia, incidence [4, 12]: 36%
- neutropenia, incidence [4, 12]: 50%
- patients who experienced DLTs ([4]; lymphoma cohort, 120 mg/m^2 over 1 hour): Two out of six
- neutropenia, incidence ([4]; shorter infusion times): 16%
- treatment-emergent ECG abnormality indicated to be clinically significant ([5]; all patients): No patient
- treatment-emergent QTcF interval >500 msec ([5]; all patients): One patient
- prolonged QTcF interval ([5]; one subject, MM 80/45 cohort, discontinuation visit three weeks after only dose, screening QTcF 423 msec): 677 ms
- cardiac disorder considered study drug-related (grade 1 palpitations) ([5]; overall): 2%
- best response PD [6]: 41%
- C-reactive protein increased TEAE ([7]; all patients): 4%
- blood creatinine increased TEAE ([7]; all patients): 9%
- blood potassium decreased/hypokalemia TEAE ([7]; all patients): 11%
- grade 3 hyperuricemia TEAE ([7]; considered unrelated to study drug): 2%
- treatment-emergent shift to grade 3 aspartate aminotransferase increased and grade 3 hypoalbuminemia (each) ([7]; patients with normal or grade 1 or 2 values at baseline): 2%
- best response PD (multiple myeloma [8]): 47%
- best response PD [9]: 37%
